Where a SMILES comes first, the peptide text is derived from it. [ ]: non-standard residue; d: D form. Trp(5-OH) = N[C@@H](Cc1c[nH]c2ccc(O)cc12)C(=O)O; dTrp(5-OH) = N[C@H](Cc1c[nH]c2ccc(O)cc12)C(=O)O; dTrp(6-OH) = N[C@H](Cc1c[nH]c2cc(O)ccc12)C(=O)O; sY = N[C@@H](Cc1ccc(OS(=O)(=O)O)cc1)C(=O)O; Phe(3-Br) = N[C@@H](Cc1cccc(Br)c1)C(=O)O; Nle = CCCC[C@H](N)C(=O)O
Columns and labels:
[1] = target: T1, CCK-B receptors (CHO-CCK) (Homo sapiens, UniProt P32239); test: Calcium flux (Fluo-8) agonist test on CHO-CCK model cells; format: cell-based; conditions: CHO-CCK cells, Fluo-8 calcium flux
T1 construct: expressed in transfected cells; host or cells: CHO (CHO-CCK model cells)
T1 sequence (P32239 1-447): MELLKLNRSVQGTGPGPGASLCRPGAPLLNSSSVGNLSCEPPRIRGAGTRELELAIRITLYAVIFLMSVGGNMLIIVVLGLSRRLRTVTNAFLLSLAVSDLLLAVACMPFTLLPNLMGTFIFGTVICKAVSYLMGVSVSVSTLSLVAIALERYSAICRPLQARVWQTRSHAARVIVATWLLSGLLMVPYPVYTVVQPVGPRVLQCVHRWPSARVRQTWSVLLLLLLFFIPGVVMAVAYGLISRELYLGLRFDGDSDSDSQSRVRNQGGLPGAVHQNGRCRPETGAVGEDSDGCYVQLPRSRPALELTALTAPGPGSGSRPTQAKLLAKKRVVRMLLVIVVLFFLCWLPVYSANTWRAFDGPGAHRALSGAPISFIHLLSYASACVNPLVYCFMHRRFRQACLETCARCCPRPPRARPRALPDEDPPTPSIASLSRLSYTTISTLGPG
How it was run: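 Agonist-mode Fluo-8 calcium flux read on CHO-CCK cells after dye loading 30 min at 37 °C plus 30 min at room temperature.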

[2] = target: T1, CCK-B receptors (CHO-CCK); test: Calcium flux (Fluo-8) antagonist test on CHO-CCK model cells in presence of CCK8; format: cell-based
[3] = in presence of 10 nM CCK8, bound in μM

| SMILES | EC50 ([1]; bound in μM) [µM] | EC50 [2, 3] [µM] | EC50 ([1]; bound printed in nm in the cell) [µM] | EC50 ([2]; in presence of 10 nM CCK8) [µM] | EC50 ([1]; 100% control = 20 nM CCK8) [µM] |
| --- | --- | --- | --- | --- | --- |
| CCCC[C@H](NC(=O)[C@H](Cc1c[nH]c2ccccc12)NC(=O)CNC(C)=O)C(=O)N[C@@H](CC(=O)O)C(N)=O [HT-214, Ac-Gly-Trp-Nle-Asp-NH2] (Ac-GW[Nle]D-NH2) | > 10 | > 10 |  |  |  |
| CCCC[C@H](NC(=O)[C@H](Cc1c[nH]c2ccccc12)NC(=O)CNC(C)=O)C(=O)N[C@@H](CC(=O)O)C(=O)N[C@@H](Cc1cccc(Br)c1)C(N)=O [HT-215, Ac-Gly-Trp-Nle-Asp-Phe(3-Br)-NH2] (Ac-GW[Nle]D[Phe(3-Br)]-NH2) |  |  | < 0.0001 | 0.237 |  |
| CSCC[C@H](NC(=O)[C@H](Cc1ccc(OS(=O)(=O)O)cc1)NC(=O)[C@H](CC(=O)O)NC(C)=O)C(=O)NCC(=O)N[C@@H](Cc1c[nH]c2ccccc12)C(N)=O [HT-216, Ac-Asp-Tyr(SO3H)-Met-Gly-Trp-NH2] (Ac-D[sY]MGW-NH2) |  |  |  | 1.44 | 0.588 |
| CSCC[C@H](NC(=O)[C@@H](Cc1c[nH]c2ccccc12)NC(=O)CNC(=O)[C@H](Cc1ccc(O)cc1)NC(=O)[C@H](CC(N)=O)NC(=O)[C@H](CCCCN)NC(=O)[C@@H](NC(=O)[C@H](C)NC(=O)[C@H](CC(N)=O)NC(=O)[C@@H](NC(=O)[C@H](Cc1c[nH]cn1)NC(=O)CNC(=O)[C@H](CO)NC(=O)[C@H](CC(N)=O)NC(=O)[C@H](C)NC(=O)[C@H](Cc1ccc(O)cc1)NC(C)=O)C(C)C)C(C)C)C(=O)N[C@@H](CC(=O)O)C(=O)N[C@@H](Cc1cccc(Br)c1)C(N)=O [HT-218] (Ac-YANSGHVNAVKNYG[dW]MD[Phe(3-Br)]-NH2) |  |  |  | 0.68 | 0.395 |
| CC[C@H](C)[C@H](NC(=O)[C@H](CCC(=O)O)NC(=O)[C@H](CC(N)=O)NC(=O)[C@@H](NC(=O)[C@H](CC(C)C)NC(=O)[C@H](CCC(=O)O)NC(=O)[C@H](CO)NC(=O)[C@H](CCC(=O)O)NC(C)=O)[C@@H](C)O)C(=O)N1CCC[C@H]1C(=O)N[C@@H](C)C(=O)N[C@@H](CCC(=O)O)C(=O)N[C@H](Cc1c[nH]c2ccccc12)C(=O)N[C@@H](CCSC)C(=O)N[C@@H](CC(=O)O)C(=O)N[C@@H](Cc1cccc(Br)c1)C(N)=O [HT-219, Ac-Glu-Ser-Glu-Leu-Thr-Asn-Glu-lle-Pro-Ala-Glu-D-Trp-Met-Asp-Phe(3-Br)-NH2] (Ac-ESELTNEIPAE[dW]MD[Phe(3-Br)]-NH2) |  |  |  | 2.58 | 0.327 |
| CSCC[C@H](NC(=O)[C@@H](Cc1c[nH]c2ccccc12)NC(=O)[C@H](CCC(=O)O)NC(=O)[C@H](CC(C)C)NC(=O)CNC(=O)[C@H](Cc1c[nH]cn1)NC(=O)[C@H](CO)NC(=O)CNC(=O)[C@H](CCCCN)NC(=O)[C@H](CCCNC(=N)N)NC(=O)[C@H](CCCNC(=N)N)NC(=O)[C@H](Cc1c[nH]cn1)NC(=O)[C@H](CCCCN)NC(=O)[C@@H](NC(C)=O)[C@@H](C)O)C(=O)N[C@@H](CC(=O)O)C(=O)N[C@@H](Cc1cccc(Br)c1)C(N)=O [HT-220] (Ac-TKHRRKGSHGLE[dW]MD[Phe(3-Br)]-NH2) |  |  |  | 2.88 | 8.39 |
| CSCC[C@H](NC(=O)[C@H](Cc1ccccc1)NC(C)=O)C(=O)N[C@@H](CC(=O)O)C(=O)N[C@@H](Cc1cccc(Br)c1)C(N)=O [HT-223, Ac-Phe-Met-Asp-Phe(3-Br)-NH2] (Ac-FMD[Phe(3-Br)]-NH2) |  |  |  | 1.88 | 0.225 |
| CSCC[C@H](NC(=O)[C@H](Cc1cccc(Br)c1)NC(C)=O)C(=O)N[C@@H](CC(=O)O)C(=O)N[C@@H](Cc1cccc(Br)c1)C(N)=O [HT-224, Ac-Phe(3-Br)-Met-Asp-Phe(3-Br)-NH2] (Ac-[Phe(3-Br)]MD[Phe(3-Br)]-NH2) |  |  |  | 0.0803 | 0.0254 |
| CCCC[C@H](NC(=O)[C@H](Cc1c[nH]c2ccccc12)NC(C)=O)C(=O)N[C@@H](CC(=O)O)C(=O)N[C@@H](Cc1c[nH]c2ccccc12)C(N)=O [HT-225, Ac-D-Trp-Nle-Asp-Trp-NH2] |  |  |  | 0.475 | 0.0332 |
| CCCC[C@H](NC(=O)[C@@H](Cc1c[nH]c2ccccc12)NC(C)=O)C(=O)N[C@@H](CC(=O)O)C(=O)N[C@@H](Cc1c[nH]c2ccc(O)cc12)C(N)=O [HT-226, Ac-D-Trp-Nle-Asp-(5-HTP)-NH2] (Ac-[dW][Nle]D[Trp(5-OH)]-NH2) |  | > 10 |  |  | 14.2 |
| CCCC[C@H](NC(=O)[C@@H](Cc1c[nH]c2cc(O)ccc12)NC(C)=O)C(=O)N[C@@H](CC(=O)O)C(=O)N[C@@H](Cc1cccc(Br)c1)C(N)=O [HT-227, Ac-(5-HTP)-Nle-Asp-Phe(3-Br)-NH2] (Ac-[dTrp(6-OH)][Nle]D[Phe(3-Br)]-NH2) |  |  |  | 3.4 | 0.022 |
| CCCC[C@H](NC(=O)[C@H](Cc1c[nH]c2ccccc12)NC(C)=O)C(=O)N[C@@H](CC(=O)O)C(=O)N[C@@H](Cc1cn(C)c2ccccc12)C(N)=O [HT-228, Ac-D-Trp-Nle-Asp-(1-Me-Trp)-NH2] |  |  |  | 3.07 | 0.262 |
| CCCC[C@H](NC(=O)[C@H](Cc1c[nH]c2ccccc12)NC(C)=O)C(=O)N[C@@H](CC(=O)O)C(=O)N[C@@H](Cc1c(C)[nH]c2ccccc12)C(N)=O [HT-229, Ac-D-Trp-Nle-Asp-(2-Me-Trp)-NH2] |  | > 10 |  |  | 8.2 |
| CCCC[C@H](NC(=O)[C@@H](Cc1cn(C)c2ccccc12)NC(C)=O)C(=O)N[C@@H](CC(=O)O)C(=O)N[C@@H](Cc1cccc(Br)c1)C(N)=O [HT-230, Ac-(1-Me-Trp)-Nle-Asp-Phe(3-Br)-NH2] |  |  |  | 0.0575 | 0.00192 |
| CCCC[C@H](NC(=O)[C@@H](Cc1c(C)[nH]c2ccccc12)NC(C)=O)C(=O)N[C@@H](CC(=O)O)C(=O)N[C@@H](Cc1cccc(Br)c1)C(N)=O [HT-231, Ac-(2-Me-Trp)-Nle-Asp-Phe(3-Br)-NH2] |  |  |  | 1.43 | 0.252 |
| CCCC[C@H](NC(=O)[C@@H](Cc1cn(C)c2ccccc12)NC(C)=O)C(=O)N[C@@H](CC(=O)O)C(=O)N[C@@H](Cc1cn(C)c2ccccc12)C(N)=O [HT-232, Ac-(1-Me-Trp)-Nle-Asp-(1-Me-Trp)-NH2] |  |  |  | 3.28 | 0.376 |
| CCCC[C@H](NC(=O)[C@@H](Cc1cn(C)c2ccccc12)NC(C)=O)C(=O)N[C@@H](CC(=O)O)C(=O)N[C@@H](Cc1c(C)[nH]c2ccccc12)C(N)=O [HT-233, Ac-(1-Me-Trp)-Nle-Asp-(2-Me-Trp)-NH2] | > 10 |  |  | 3.65 |  |
| CCCC[C@H](NC(=O)[C@@H](Cc1c(C)[nH]c2ccccc12)NC(C)=O)C(=O)N[C@@H](CC(=O)O)C(=O)N[C@@H](Cc1cn(C)c2ccccc12)C(N)=O [HT-234, Ac-(2-Me-Trp)-Nle-Asp-(1-Me-Trp)-NH2] |  |  |  | 4 | 5.46 |
| CCCC[C@H](NC(=O)[C@@H](Cc1c(C)[nH]c2ccccc12)NC(C)=O)C(=O)N[C@@H](CC(=O)O)C(=O)N[C@@H](Cc1c(C)[nH]c2ccccc12)C(N)=O [HT-235, Ac-(2-Me-Trp)-Nle-Asp-(2-Me-Trp)-NH2] | > 10 | > 10 |  |  |  |
| CCCC[C@H](NC(=O)[C@@H](Cc1cccc(Br)c1)NC(C)=O)C(=O)N[C@@H](CC(=O)O)C(=O)N[C@@H](Cc1cccc(Br)c1)C(N)=O [HT-236, Ac-Phe(3-Br)-Nle-Asp-Phe(3-Br)-NH2] |  |  |  | 0.357 | 0.0977 |
| CCCC[C@H](NC(=O)[C@@H](Cc1cccc(Br)c1)NC(C)=O)C(=O)N[C@@H](CCC(=O)O)C(=O)N[C@@H](Cc1cccc(Br)c1)C(N)=O [HT-237, Ac-Phe(3-Br)-Nle-Glu-Phe(3-Br)-NH2] | > 10 | > 10 |  |  |  |
| CCCC[C@H](NC(=O)[C@H](Cc1c[nH]c2ccccc12)NC(C)=O)C(=O)N[C@@H](CCC(=O)O)C(=O)N[C@@H](Cc1cccc(Br)c1)C(N)=O [HT-238, Ac-D-Trp-Nle-Glu-Phe(3-Br)-NH2] |  |  |  | 28.2 | 0.0344 |
| CCCC[C@H](NC(=O)[C@H](Cc1c[nH]c2ccccc12)NC(C)=O)C(=O)N[C@@H](CCC(=O)O)C(=O)N[C@@H](Cc1c[nH]c2ccc(O)cc12)C(N)=O [HT-239, Ac-D-Trp-Nle-Glu-(5-HTP)-NH2] (Ac-W[Nle]E[Trp(5-OH)]-NH2) | > 10 | > 10 |  |  |  |
| CCCC[C@H](NC(=O)[C@@H](Cc1c[nH]c2ccc(O)cc12)NC(C)=O)C(=O)N[C@@H](CCC(=O)O)C(=O)N[C@@H](Cc1cccc(Br)c1)C(N)=O [HT-240, Ac-(5-HTP)-Nle-Glu-Phe(3-Br)-NH2] (Ac-[dTrp(5-OH)][Nle]E[Phe(3-Br)]-NH2) |  | > 10 |  |  | 0.527 |
| CCCC[C@H](NC(=O)[C@H](Cc1c[nH]c2ccccc12)NC(C)=O)C(=O)N[C@@H](CCC(=O)O)C(=O)N[C@@H](Cc1cn(C)c2ccccc12)C(N)=O [HT-241, Ac-D-Trp-Nle-Glu-(1-Me-Trp)-NH2] |  | > 10 |  |  | 3.55 |
